Results on 26 compounds are retold here after patent publication US20090291938A1 (TAKEDA PHARMACEUTICAL COMPANY LIMITED, priority 2007, published 2009).

Where two headings read alike, the source gives them in different places.

This assay concerns HT29 human colorectal adenocarcinoma cell line. Kind of assay: cell proliferation assay (Cell Titer-Glo luminescent cell viability assay). The assay is classed as cell-based. As to conditions: read-out: pIC50 (converted). The essentials: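 Cells grown in DMEM with 10% FBS and exposed to compounds for 72 h. Viability read by CellTiter-Glo luminescence, expressed as percentage of DMSO-treated cells.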
A general note: In ATP-based viability assays light output follows the ATP content of the culture.

Where [1] appears, read: HT-29, cell proliferative assay, HT29 cells, 72 hr treatment, values given as ranges.

For the compound `COc1cc(C(=O)N[C@H]2CCCN(C)C2)ccc1Nc1ncc2c(n1)N(C1CCCC1)CC(C)(C)C(=O)N2C` [Compound 99, (S)-4-(9-cyclopentyl-5,7,7-trimethyl-6-oxo-6,7,8,9-tetrahydro-5H-pyrimido[4,5-b][1,4]diazepin-2-ylamino)-3-methoxy-N-(1-methylpiperidin-3-yl)benzamide], the IC50 under setting [1] was less than 1 nM.
Still for that read-out and setting: under `COc1cc(C(=O)NN2CCN(C)CC2)ccc1Nc1ncc2c(n1)N(C1CCCC1)CC(C)(C)C(=O)N2C` [Compound 106, 4-(9-cyclopentyl-5,7,7-trimethyl-6-oxo-6,7,8,9-tetrahydro-5H-pyrimido[4,5-b][1,4]diazepin-2-ylamino)-3-methoxy-N-(4-methylpiperazin-1-yl)benzamide] stands less than 1 nM.
For the compound `COc1cc(C(=O)N[C@@H]2CCCN(C)C2)ccc1Nc1ncc2c(n1)N(C1CCCC1)CC1(CC1)C(=O)N2C` [Compound 165, (R)-4-(9′-cyclopentyl-5′-methyl-6′-oxo-5′,6′,8′,9′-tetrahydrospiro[cyclopropane-1,7′-pyrimido[4,5-b][1,4]diazepine]-2′-ylamino)-3-methoxy-N-(1-methylpiperidin-3-yl)benzamide], the IC50 under setting [1] was 1 to 2.51 nM.
`COc1cc(C(=O)NN2CCN(C)CC2)ccc1Nc1ncc2c(n1)N(C1CCCC1)CC1(CCC1)C(=O)N2C` [Compound 180, 4-(9′-cyclopentyl-5′-methyl-6′-oxo-5′,6′,8′,9′-tetrahydrospiro[cyclobutane-1,7′-pyrimido[4,5-b][1,4]diazepine]-2′-ylamino)-3-methoxy-N-(4-methylpiperazin-1-yl)benzamide]: the IC50 under setting [1] is less than 1 nM.
Turning to `COc1cc(C(=O)NCc2ccccn2)ccc1Nc1ncc2c(n1)N(C1CCCC1)CCC(=O)N2C` [Compound 69, 4-(9-cyclopentyl-5-methyl-6-oxo-6,7,8,9-tetrahydro-5H-pyrimido[4,5-b][1,4]diazepin-2-ylamino)-3-methoxy-N-(pyridin-2-ylmethyl)benzamide], under setting [1], the IC50 was 3.16 to 10 nM.
With `COc1cc(C(=O)NCCN2CCCC2)ccc1Nc1ncc2c(n1)N(C1CCCC1)CCC(=O)N2C` [Compound 57, 4-(9-cyclopentyl-5-methyl-6-oxo-6,7,8,9-tetrahydro-5H-pyrimido[4,5-b][1,4]diazepin-2-ylamino)-3-methoxy-N-(2-(pyrrolidin-1-yl)ethyl)benzamide], the IC50 under setting [1] is more than 10 nM.
For the compound `COc1cc(C(=O)NC2CN(C)C2)ccc1Nc1ncc2c(n1)N(C1CCCCC1)CC(C1CC1)C(=O)N2C` (centres unmarked) [Compound 157, 4-(9-cyclohexyl-7-cyclopropyl-5-methyl-6-oxo-6,7,8,9-tetrahydro-5H-pyrimido[4,5-b][1,4]diazepin-2-ylamino)-3-methoxy-N-(1-methylazetidin-3-yl)benzamide], the IC50 under setting [1] was more than 10 nM.
Turning to `COc1cc(C(=O)NC2CCN(C)CC2)ccc1Nc1ncc2c(n1)N(C1CCCC1C)CC1(CC1)C(=O)N2C` (centres unmarked) [Compound 177, 3-methoxy-4-(5′-methyl-9′-(2-methylcyclopentyl)-6′-oxo-5′,6′,8′,9′-tetrahydrospiro[cyclopropane-1,7′-pyrimido[4,5-b][1,4]diazepine]-2′-ylamino)-N-(1-methylpiperidin-4-yl)benzamide], under setting [1], the IC50 is less than 1 nM.
For the compound `C=CCC1CN(C2CCCCC2)c2nc(Nc3ccc(C(=O)N[C@H]4CCNC4)cc3OC)ncc2N(C)C1=O` (stereo partly drawn) [Compound 194, 4-(7-allyl-9-cyclohexyl-5-methyl-6-oxo-6,7,8,9-tetrahydro-5H-pyrimido[4,5-b][1,4]diazepin-2-ylamino)-3-methoxy-N-((S)-pyrrolidin-3-yl)benzamide], the IC50 under setting [1] is less than 1 nM.
On the same count and under the same terms, under `C=CC1(C)CN(C2CCCC2)c2nc(Nc3ccc(C(=O)NC4CCN(C)CC4)cc3OC)ncc2N(C)C1=O` (centres unmarked) [Compound 239, 4-(9-cyclopentyl-5,7-dimethyl-6-oxo-7-vinyl-6,7,8,9-tetrahydro-5H-pyrimido[4,5-b][1,4]diazepin-2-ylamino)-3-methoxy-N-(1-methylpiperidin-4-yl)benzamide] stands 3.16 to 10 nM.
In the case of `CCOc1cc(C(=O)NC2CCN(C)CC2)ccc1Nc1ncc2c(n1)N(C1CCCC1)CC(C)(C)C(=O)N2C` [Compound 123, 4-(9-cyclopentyl-5,7,7-trimethyl-6-oxo-6,7,8,9-tetrahydro-5H-pyrimido[4,5-b][1,4]diazepin-2-ylamino)-3-ethoxy-N-(1-methylpiperidin-4-yl)benzamide], the IC50 under setting [1] is less than 1 nM.
With `COc1cc(C(=O)NC2CCN(C(C)=O)CC2)ccc1Nc1ncc2c(n1)N(C1CCCC1)CC(C)(C)C(=O)N2C` [Compound 90, N-(1-acetylpiperidin-4-yl)-4-(9-cyclopentyl-5,7,7-trimethyl-6-oxo-6,7,8,9-tetrahydro-5H-pyrimido[4,5-b][1,4]diazepin-2-ylamino)-3-methoxybenzamide], under setting [1], the IC50 was 1 to 2.51 nM.
For `CCN1CCC(NC(=O)c2ccc(Nc3ncc4c(n3)N(C3CCCC3)CC(C)(C)C(=O)N4C)c(OC)c2)CC1` [Compound 87, 4-(9-cyclopentyl-5,7,7-trimethyl-6-oxo-6,7,8,9-tetrahydro-5H-pyrimido[4,5-b][1,4]diazepin-2-ylamino)-N-(1-ethylpiperidin-4-yl)-3-methoxybenzamide], the IC50 under setting [1] is 1 to 2.51 nM.
With `C/C=C/CC1CN(C2CCCC2)c2nc(Nc3ccc(C(=O)NC4CCN(C)CC4)cc3OC)ncc2N(C)C1=O` (centres unmarked) [Compound 220, (E)-4-(7-(but-2-enyl)-9-cyclopentyl-5-methyl-6-oxo-6,7,8,9-tetrahydro-5H-pyrimido[4,5-b][1,4]diazepin-2-ylamino)-3-methoxy-N-(1-methylpiperidin-4-yl)benzamide], the IC50 under setting [1] is 3.16 to 10 nM.
`COc1cc(C(=O)NC2CCN(C(=O)C3CC3)CC2)ccc1Nc1ncc2c(n1)N(C1CCCC1)CCC(=O)N2C` [Compound 73]: the IC50 under setting [1] is more than 10 nM.
Regarding `COc1cc(C(=O)NC[C@H]2CCCNC2)ccc1Nc1ncc2c(n1)N(C1CCCC1)CCC(=O)N2C` [Compound 64, (S)-4-(9-cyclopentyl-5-methyl-6-oxo-6,7,8,9-tetrahydro-5H-pyrimido[4,5-b][1,4]diazepin-2-ylamino)-3-methoxy-N-(piperidin-3-ylmethyl)benzamide], under setting [1], the IC50 is more than 10 nM.
As for `C=C[C@]1(C)CN(C2CCCC2)c2nc(Nc3ccc(C(=O)NN4CCN(C)CC4)cc3OC)ncc2N(C)C1=O` [Compound 243, (R)-4-(9-cyclopentyl-5,7-dimethyl-6-oxo-7-vinyl-6,7,8,9-tetrahydro-5H-pyrimido[4,5-b][1,4]diazepin-2-ylamino)-3-methoxy-N-(4-methylpiperazin-1-yl)benzamide], under setting [1], the IC50 is less than 1 nM.
The same measure, in the same setting: under `COc1cc(C(=O)NC2CNC2)ccc1Nc1ncc2c(n1)N(C1CCCCC1)CC(C)(C)C(=O)N2C` [Compound 118, N-(azetidin-3-yl)-4-(9-cyclohexyl-5,7,7-trimethyl-6-oxo-6,7,8,9-tetrahydro-5H-pyrimido[4,5-b][1,4]diazepin-2-ylamino)-3-methoxybenzamide] stands 3.16 to 10 nM.
With `CN1CCC(NC(=O)c2ccc(Nc3ncc4c(n3)N(C3CCCC3)CC(C)(C)C(=O)N4C)c(OC(F)F)c2)CC1` [Compound 127, 4-(9-Cyclopentyl-5,7,7-trimethyl-6-oxo-6,7,8,9-tetrahydro-5H-pyrimido[4,5-b][1,4]diazepin-2-ylamino)-3-(difluoromethoxy)-N-(1-methylpiperidin-4-yl)benzamide], the IC50 (HT-29, 72 h) is more than 10 nM.
`CC[C@@]1(C)CN(C2CCCCC2)c2nc(Nc3ccc(C(=O)N[C@H]4CCCNC4)cc3OC)ncc2N(C)C1=O` [Compound 149, 4-((S)-9-cyclohexyl-7-ethyl-5,7-dimethyl-6-oxo-6,7,8,9-tetrahydro-5H-pyrimido[4,5-b][1,4]diazepin-2-ylamino)-3-methoxy-N-((S)-piperidin-3-yl)benzamide]: the IC50 under setting [1] is 3.16 to 10 nM.
Regarding `C=CC[C@H]1CN(C2CCCC2)c2nc(Nc3ccc(C(=O)NC4CCNCC4)cc3OC)ncc2N(C)C1=O` [Compound 207, (S)-4-(7-allyl-9-cyclopentyl-5-methyl-6-oxo-6,7,8,9-tetrahydro-5H-pyrimido[4,5-b][1,4]diazepin-2-ylamino)-3-methoxy-N-(piperidin-4-yl)benzamide], the IC50 under setting [1] is 3.16 to 10 nM.
Same read-out and setting: under `COc1cc(C(=O)N[C@H]2CCN(C)C2)ccc1Nc1ncc2c(n1)N(C1CCCC1)CC(C)(C)C(=O)N2C` [Compound 97, (S)-4-(9-cyclopentyl-5,7,7-trimethyl-6-oxo-6,7,8,9-tetrahydro-5H-pyrimido[4,5-b][1,4]diazepin-2-ylamino)-3-methoxy-N-(1-methylpyrrolidin-3-yl)benzamide] stands 1 to 2.51 nM.
In the case of `COc1cc(C(=O)NC[C@@H]2CCCNC2)ccc1Nc1ncc2c(n1)N(C1CCCC1)CCC(=O)N2C` [Compound 63, (R)-4-(9-cyclopentyl-5-methyl-6-oxo-6,7,8,9-tetrahydro-5H-pyrimido[4,5-b][1,4]diazepin-2-ylamino)-3-methoxy-N-(piperidin-3-ylmethyl)benzamide], under setting [1], the IC50 is more than 10 nM.
For `COc1cc(C(=O)NC2CCN(C(C)C)CC2)ccc1Nc1ncc2c(n1)N(C1CCCC1)CCC(=O)N2C` [Compound 77, 4-(9-cyclopentyl-5-methyl-6-oxo-6,7,8,9-tetrahydro-5H-pyrimido[4,5-b][1,4]diazepin-2-ylamino)-N-(1-isopropylpiperidin-4-yl)-3-methoxybenzamide], the IC50 under setting [1] was more than 10 nM.
`COc1cc(C(=O)NC2CCN(C)CC2)ccc1Nc1ncc2c(n1)N(C1CCCC1)CC1(CC1)C(=O)N2C` [Compound 33, 4-(9′-cyclopentyl-5′-methyl-6′-oxo-5′,6′,8′,9′-tetrahydrospiro[cyclopropane-1,7′-pyrimido[4,5-b][1,4]diazepine]-2′-ylamino)-3-methoxy-N-(1-methylpiperidin-4-yl)benzamide]: under setting [1], the IC50 is 1 to 2.51 nM.
Regarding `CCN(CC)C1CCC(NC(=O)c2ccc(Nc3ncc4c(n3)N(C3CCCC3)CCC(=O)N4C)c(OC)c2)CC1` (centres unmarked) [Compound 79, 4-(9-cyclopentyl-5-methyl-6-oxo-6,7,8,9-tetrahydro-5H-pyrimido[4,5-b][1,4]diazepin-2-ylamino)-N-(4-(diethylamino)cyclohexyl) 3-methoxybenzamide], under setting [1], the IC50 was more than 10 nM.
